± gives the expanded uncertainty stated by the source.
How the values were obtained:
[1] = osmotic coefficient (dimensionless); mn = molality of the nth substance listed, in mol/kg; settings: 100 kPa, Liquid, boiling point elevation
[2] = mn = molality of the nth substance listed, in mol/kg; settings: 298 K, 100 kPa, Liquid, Vibrating tube method

CN(C)CC(=O)O [(Dimethylamino)acetic acid] + O
[1]
Settings | osmotic coefficient
310.15 K, m1 = 0.0986 | 1.069 ± 0.0087
310.15 K, m1 = 0.2005 | 1.035 ± 0.0088
310.15 K, m1 = 0.4001 | 1.072 ± 0.0088
310.15 K, m1 = 0.8024 | 1.076 ± 0.0094
310.15 K, m1 = 1.003 | 1.126 ± 0.01
310.15 K, m1 = 1.193 | 1.141 ± 0.011
310.15 K, m1 = 1.401 | 1.147 ± 0.0097
310.15 K, m1 = 1.585 | 1.154 ± 0.0098
310.15 K, m1 = 1.797 | 1.169 ± 0.01
310.15 K, m1 = 1.992 | 1.206 ± 0.011
323.15 K, m1 = 0.2056 | 0.981 ± 0.0084
323.15 K, m1 = 0.2889 | 0.989 ± 0.0084
323.15 K, m1 = 0.4998 | 1.008 ± 0.0087
323.15 K, m1 = 1.015 | 1.021 ± 0.0088
323.15 K, m1 = 1.5 | 1.114 ± 0.009

[2]
Settings | mass density [kg/m3]
m1 = 0.4001 | 1005.64 ± 1.1
m1 = 1.003 | 1016.88 ± 1.2
m1 = 1.401 | 1024.01 ± 1.2
m1 = 1.992 | 1033.69 ± 1.2

NC(=O)NCCC[C@H](N)C(=O)O [N5-aminocarbonyl-L-ornithine] + O
osmotic coefficient, [1]
Settings | m1 = 0.1011 | m1 = 0.1989 | m1 = 0.2016 | m1 = 0.3942 | m1 = 0.402 | m1 = 0.4915 | m1 = 0.6001 | m1 = 0.6892
310.15 K | 1.011 ± 0.008 | 1.003 ± 0.008 | – | 0.9986 ± 0.008 | – | 0.9973 ± 0.008 | – | 1.002 ± 0.008
323.15 K | – | – | 1.007 ± 0.008 | – | 1.001 ± 0.008 | – | 0.9931 ± 0.008 | –

[2]
Settings | mass density [kg/m3]
m1 = 0.1989 | 1008.22 ± 1.1
m1 = 0.3842 | 1018.59 ± 1.2
m1 = 0.6007 | 1029 ± 1.2

C[N+](C)(C)[O-] [trimethylamine oxide] + O
[1]
Settings | osmotic coefficient
310.15 K, m1 = 0.1988 | 0.9879 ± 0.0081
310.15 K, m1 = 0.406 | 1.034 ± 0.0082
310.15 K, m1 = 0.62 | 1.062 ± 0.0084
310.15 K, m1 = 0.7971 | 1.152 ± 0.0097
310.15 K, m1 = 0.9921 | 1.133 ± 0.0094
310.15 K, m1 = 1.199 | 1.15 ± 0.0098
310.15 K, m1 = 1.392 | 1.192 ± 0.011
310.15 K, m1 = 1.59 | 1.31 ± 0.014
323.15 K, m1 = 0.5008 | 1.076 ± 0.0085
323.15 K, m1 = 1.015 | 1.171 ± 0.01
323.15 K, m1 = 1.5 | 1.27 ± 0.013

[2]
Settings | mass density [kg/m3]
m1 = 0.406 | 998.235 ± 1.1
m1 = 0.7971 | 999.133 ± 1.1
m1 = 1.199 | 1000.21 ± 1.1
m1 = 1.59 | 1001.54 ± 1.1
m1 = 2.002 | 1002.01 ± 1.1
m1 = 2.445 | 1003.03 ± 1.1

OC[C@H]1O[C@H](O[C@H]2O[C@H](CO)[C@@H](O)[C@H](O)[C@H]2O)[C@H](O)[C@@H](O)[C@@H]1O [α-trehalose] + O
[1], 310.15 K
Settings | osmotic coefficient
m1 = 0.0499 | 1.031 ± 0.0081
m1 = 0.0998 | 1.036 ± 0.0081
m1 = 0.1997 | 1.02 ± 0.008
m1 = 0.2995 | 0.999 ± 0.008
m1 = 0.3989 | 1.01 ± 0.008
m1 = 0.4992 | 1.022 ± 0.008
m1 = 0.5995 | 0.9904 ± 0.008
m1 = 0.6932 | 1.019 ± 0.008
m1 = 1.469 | 1.063 ± 0.0083
m1 = 1.982 | 1.08 ± 0.0085

[2]
Settings | mass density [kg/m3]
m1 = 0.1997 | 1022.61 ± 1.2
m1 = 0.3989 | 1046.2 ± 1.2
m1 = 0.5995 | 1068.34 ± 1.2
m1 = 0.7914 | 1087.59 ± 1.3

— the NIST ThermoML archive (doi:10.1016/j.fluid.2015.07.004)
